Measured values: patent US7687079B2, “Methods of treating ileus” (priority 2002, dated 2010)

What was measured:
IL-6 mRNA = IL-6 mRNA expression in muscularis externae of intestinal grafts; type: in vivo, rat
Experimental: To investigate the sequential analysis of cytokine mRNA expression in the mucosa and muscularis, RNase protection assay was performed with the Riboquant™ kit (Pharmingen) according to the protocol of the manufacturer. […] Quantification of radioactivity of mRNA bands was performed with NIH Image, normalized to GAPDH, and expressed as a ratio of cytokine /GAPDH (n=3-4).
The effects of inhalation of CO on transplant-induced pro-inflammatory and anti-inflammatory gene expression was assessed in muscularis extracts by RT-PCR. […] Equal aliquots (5 μg) of total RNA from each sample were quantified by spectrophotometry (wavelength […]) and aliquoted at a concentration of 40 ng/μl. Peak mRNA expression was quantified in duplicate by SYBR Green two-step, real-time RT-PCR. […] Real-time PCR data were plotted as the ΔRn, fluorescence signal versus the cycle number. […] Quantification of mRNA expression was normalized to GAPDH and calculated relative to control using the comparative CT method (Schmittgen et al., J. Biochem. Biophys. Methods 46(1-2):69-8 (2000)). […]

iNOS mRNA = iNOS mRNA expression in muscularis of transplanted grafts (real time RT-PCR); type: in vivo, rat; conditions: CO-treated SITx rats, 4 hours after reperfusion; p=0.060
Experimental: The effects of inhalation of CO on transplant-induced pro-inflammatory and anti-inflammatory gene expression was assessed in muscularis extracts by RT-PCR. Muscularis extemae was collected from normal intestine and transplanted grafts 4 hours postoperatively and snap frozen in liquid nitrogen. This time point falls within the range of maximum inflammatory mediator expression that occurs between 3 and 6 hours following abdominal incision. Total RNA extraction was performed using the guanidium-thiocyanate phenol-chloroform extraction method as described previously (Eskandari et al., Am. J. Clin. Pathol. 75(3):367-370 (1997)). RNA pellets were resuspended in RNA-secure resuspension solution (Ambion Inc., Austin, Tex.), followed by removal of potentially contaminating DNA by treatment with DNase I (DNA-Free Kit, Ambion Inc., Austin, Tex.). Equal aliquots (5 μg) of total RNA from each sample were quantified by spectrophotometry (wavelength […]) and aliquoted at a concentration of 40 ng/μl. Peak mRNA expression was quantified in duplicate by SYBR Green two-step, real-time RT-PCR. […] Real-time PCR data were plotted as the ΔRn, fluorescence signal versus the cycle number. […] Quantification of mRNA expression was normalized to GAPDH and calculated relative to control using the comparative CT method (Schmittgen et al., J. Biochem. Biophys. Methods 46(1-2):69-8 (2000)). […]

[1] = tested on: total nitrite (NO production); assay: total nitrite release from muscularis extracts (index of iNOS activity); type: in vivo, mouse; conditions: IM + CO vs IM, 24 hours after surgery
Experimental: Protein and Nitric Oxide Determinations. The small bowel of control and mice subjected to intestinal manipulation was removed under sterile conditions, 4 or 24 hours post-operatively, leaving the colon in situ. The small intestine was transferred to a beaker containing chilled Hanks balanced salt solution (Sigma, St. Louis, Mo.) with 200 U/ml penicillin G and 200 μg/ml streptomycin (HBSS), the lumen flushed, and the tissue transferred to a second beaker of HBSS. The muscularis was harvested as described above for real time RT-PCR. Tissues were maintained under sterile conditions at 3 to 5° C. throughout the harvesting procedure. Isolated muscularis was blotted onto sterile gauze, and the wet weight determined to obtain aliquots of 40 to 60 mg. […]
After the incubation period, the muscle tissue was pelleted, and aliquots of culture medium were frozen in liquid nitrogen and stored at −80° C. The levels of IL-6, IL-1β, PGE2, and IL-10 proteins secreted into the culture medium were determined using commercially available ELISA kits (R&D Systems, Minneapolis, Minn.) according to the manufacturer's instructions. […] Nitrate/nitrate levels were measured 24 hrs postoperatively using commercially available test kit (Oxford Biomedical Research, Oxford, Mich.) and quantified according to the manufacturer's directions. […]

## [C-]#[O+] [CO, carbon monoxide]
IL-6 mRNA; SITx + CO, Table 2
  IL-6 mRNA: 22.3 ± 1.8 % GAPDH
IL-6 mRNA; SITx recipients treated with CO vs SITx, 4 hours after reperfusion, p=0.084
  reduction of mean relative IL-6 mRNA expression: 40%
iNOS mRNA
  reduction of mean relative iNOS mRNA expression: approximately 50%
[1]
  surgically induced increase in nitrite release: significantly inhibited
